# Source: PMC6136660 (Steroids, 2018)
# What was measured:
# [1] = Aqueous solubility (statement); assay type: physicochemical; details: aqueous solutions
# [2] = test system: white blood cells and subsets (lymphocytes, neutrophils, eosinophils); assay: Differential white blood cell counts (immune suppression), MAD; assay type: in vivo, human; details: for Eosinophils: mean; for Lymphocytes / Neutrophil cell counts / White blood cells counts: mean±SEM, in 10^9/L (unit assumed)
# Description: A single dose of pharmacological glucocorticoids results in rapid changes in peripheral blood white cell counts, with increased neutrophils, and decreased lymphocytes. Increases of neutrophils are from release from peripheral tissues, whereas loss of lymphocytes is due to induction of apoptosis. Differential white blood cell counts were studied in all Phase 1 MAD subjects. […]
# placebo. White blood cells and subsets (lymphocytes, neutrophils, eosinophils) were measured at screening, day -1, pre-dose on days 1-14, day 17, and at follow-up (recovery). Day 1 (pre-dose), Day 2 (24 hr after first dose), Day 14 and follow-up (recovery) time points are graphed […]
# [3] = MAD 1.0 mg/kg, Day 1 predose, baseline
# [4] = MAD 1.0 mg/kg, Day 17 (3 days after last dose)
# [5] = MAD 1.0 mg/kg, Day 21 follow-up
# [6] = MAD 1.0 mg/kg, Day -1, baseline
# [7] = MAD 1.0 mg/kg, Screening, baseline
# [8] = MAD 3.0 mg/kg, Day 1 predose, baseline
# [9] = MAD 3.0 mg/kg, Day 17 (3 days after last dose)
# [10] = MAD 3.0 mg/kg, Day 21 follow-up
# [11] = MAD 3.0 mg/kg, Day -1, baseline
# [12] = MAD 3.0 mg/kg, Screening, baseline
structure (smiles),measurement,setting,value
C[C@@H]1C[C@H]2[C@@H]3CCC4=CC(=O)C=C[C@]4(C)C3=CC[C@]2(C)[C@@]1(O)C(=O)CO [vamorolone],solubility,[1],very poor solubility in aqueous solutions
same,Eosinophils,[2]; [3],0.17 10^9/L
same,Lymphocytes,[2]; [3],1.9 ± 0.4
same,Neutrophil cell counts,[2]; [3],2.8 ± 1.0
same,White blood cells counts,[2]; [3],5.2 ± 1.0
same,Eosinophils,"[2]; MAD 1.0 mg/kg, Day 2 predose",0.17 10^9/L
same,Lymphocytes,"[2]; MAD 1.0 mg/kg, Day 2 predose",1.8 ± 0.3
same,Neutrophil cell counts,"[2]; MAD 1.0 mg/kg, Day 2 predose",3.0 ± 0.9
same,White blood cells counts,"[2]; MAD 1.0 mg/kg, Day 2 predose",5.3 ± 0.9
same,Eosinophils,"[2]; MAD 1.0 mg/kg, Day 3 predose",0.17 10^9/L
same,Lymphocytes,"[2]; MAD 1.0 mg/kg, Day 3 predose",2.1 ± 0.2
same,Neutrophil cell counts,"[2]; MAD 1.0 mg/kg, Day 3 predose",2.8 ± 0.8
same,White blood cells counts,"[2]; MAD 1.0 mg/kg, Day 3 predose",5.4 ± 0.8
same,Eosinophils,"[2]; MAD 1.0 mg/kg, Day 7 predose",0.2 10^9/L
same,Lymphocytes,"[2]; MAD 1.0 mg/kg, Day 7 predose",2.1 ± 0.3
same,Neutrophil cell counts,"[2]; MAD 1.0 mg/kg, Day 7 predose",3.1 ± 0.9
same,White blood cells counts,"[2]; MAD 1.0 mg/kg, Day 7 predose",5.9 ± 0.7
same,Eosinophils,"[2]; MAD 1.0 mg/kg, Day 12 predose",0.2 10^9/L
same,Lymphocytes,"[2]; MAD 1.0 mg/kg, Day 12 predose",2.3 ± 0.3
same,Neutrophil cell counts,"[2]; MAD 1.0 mg/kg, Day 12 predose",3.2 ± 1.0
same,White blood cells counts,"[2]; MAD 1.0 mg/kg, Day 12 predose",6.1 ± 0.9
same,Eosinophils,"[2]; MAD 1.0 mg/kg, Day 14 predose",0.18 10^9/L
same,Lymphocytes,"[2]; MAD 1.0 mg/kg, Day 14 predose",2.3 ± 0.2
same,Neutrophil cell counts,"[2]; MAD 1.0 mg/kg, Day 14 predose",3.0 ± 1.0
same,White blood cells counts,"[2]; MAD 1.0 mg/kg, Day 14 predose",5.9 ± 0.9
same,Eosinophils,[2]; [4],0.17 10^9/L
same,Lymphocytes,[2]; [4],2.1 ± 0.4
same,Neutrophil cell counts,[2]; [4],3.0 ± 0.8
same,White blood cells counts,[2]; [4],5.7 ± 0.6
same,Eosinophils,[2]; [5],0.15 10^9/L
same,Lymphocytes,[2]; [5],2.0 ± 0.2
same,Neutrophil cell counts,[2]; [5],3.0 ± 0.6
same,White blood cells counts,[2]; [5],5.5 ± 0.7
same,Eosinophils,[2]; [6],0.18 10^9/L
same,Lymphocytes,[2]; [6],2.1 ± 0.5
same,Neutrophil cell counts,[2]; [6],2.8 ± 0.9
same,White blood cells counts,[2]; [6],5.5 ± 0.8
same,Eosinophils,[2]; [7],0.13 10^9/L
same,Lymphocytes,[2]; [7],1.8 ± 0.5
same,Neutrophil cell counts,[2]; [7],3.6 ± 2.0
same,White blood cells counts,[2]; [7],5.9 ± 2.2
same,Eosinophils,[2]; [8],0.23 10^9/L
same,Lymphocytes,[2]; [8],1.8 ± 0.6
same,Neutrophil cell counts,[2]; [8],3.4 ± 1.3
same,White blood cells counts,[2]; [8],5.8 ± 2.0
same,Eosinophils,"[2]; MAD 3.0 mg/kg, Day 2 predose",0.23 10^9/L
same,Lymphocytes,"[2]; MAD 3.0 mg/kg, Day 2 predose",2.0 ± 0.4
same,Neutrophil cell counts,"[2]; MAD 3.0 mg/kg, Day 2 predose",3.4 ± 1.2
same,White blood cells counts,"[2]; MAD 3.0 mg/kg, Day 2 predose",5.9 ± 1.5
same,Eosinophils,"[2]; MAD 3.0 mg/kg, Day 3 predose",0.2 10^9/L
same,Lymphocytes,"[2]; MAD 3.0 mg/kg, Day 3 predose",2.1 ± 0.7
same,Neutrophil cell counts,"[2]; MAD 3.0 mg/kg, Day 3 predose",3.4 ± 1.4
same,White blood cells counts,"[2]; MAD 3.0 mg/kg, Day 3 predose",6.1 ± 2.2
same,Eosinophils,"[2]; MAD 3.0 mg/kg, Day 7 predose",0.18 10^9/L
same,Lymphocytes,"[2]; MAD 3.0 mg/kg, Day 7 predose",2.4 ± 0.8
same,Neutrophil cell counts,"[2]; MAD 3.0 mg/kg, Day 7 predose",3.3 ± 0.9
same,White blood cells counts,"[2]; MAD 3.0 mg/kg, Day 7 predose",6.3 ± 2.0
same,Eosinophils,"[2]; MAD 3.0 mg/kg, Day 12 predose",0.18 10^9/L
same,Lymphocytes,"[2]; MAD 3.0 mg/kg, Day 12 predose",2.1 ± 0.7
same,Neutrophil cell counts,"[2]; MAD 3.0 mg/kg, Day 12 predose",3.2 ± 1.1
same,White blood cells counts,"[2]; MAD 3.0 mg/kg, Day 12 predose",6.0 ± 2.0
same,Eosinophils,"[2]; MAD 3.0 mg/kg, Day 14 predose",0.2 10^9/L
same,Lymphocytes,"[2]; MAD 3.0 mg/kg, Day 14 predose",2.2 ± 0.6
same,Neutrophil cell counts,"[2]; MAD 3.0 mg/kg, Day 14 predose",3.0 ± 1.1
same,White blood cells counts,"[2]; MAD 3.0 mg/kg, Day 14 predose",5.8 ± 1.8
same,Eosinophils,[2]; [9],0.17 10^9/L
same,Lymphocytes,[2]; [9],2.0 ± 0.5
same,Neutrophil cell counts,[2]; [9],4.0 ± 1.1
same,White blood cells counts,[2]; [9],6.6 ± 1.6
same,Eosinophils,[2]; [10],0.18 10^9/L
same,Lymphocytes,[2]; [10],1.8 ± 0.6
same,Neutrophil cell counts,[2]; [10],3.9 ± 1.4
same,White blood cells counts,[2]; [10],6.3 ± 1.6
same,Eosinophils,[2]; [11],0.2 10^9/L
same,Lymphocytes,[2]; [11],1.9 ± 0.6
same,Neutrophil cell counts,[2]; [11],3.5 ± 1.4
same,White blood cells counts,[2]; [11],6.1 ± 1.9
same,Eosinophils,[2]; [12],0.18 10^9/L
same,Lymphocytes,[2]; [12],2.0 ± 1.0
same,Neutrophil cell counts,[2]; [12],3.5 ± 1.8
same,White blood cells counts,[2]; [12],6.2 ± 2.9
